The values that follow come from article PMC12040169 (PLOS Biology, 2025).

A word on the viability: it is a read-out of living cells in per cent, often relative to untreated cells.

Structures are written as SMILES.

This data set is described as follows: in vitro. The conditions noted are these: human, hela cells, % viability.
Turning to `O=C(c1ccno1)N1C[C@@H]2OCC(=O)N(CC3CC3)[C@@H]2C1` [CBK289680], the viability at 28.5 h, 10 µM amounted to 83.5%. With `O=C(c1cnccn1)N1C[C@@H]2OCC(=O)N(CC3CC3)[C@@H]2C1` [CBK289681], the viability at 28.5 h, 10 µM worked out at 91.3%. Regarding `O=C(Nc1ccccc1)N1C[C@@H]2OCC(=O)N(Cc3ccc(F)cc3)[C@@H]2C1` [CBK289683], the viability at 28.5 h, 10 µM was 82%. On to `CCC(CC)C(=O)Nc1ccc([C@@H](O)[C@H]2COCC(=O)N2CC)cc1` [CBK289684], for which the viability at 28.5 h, 10 µM stood at 107%.

Consider `CCN1C(=O)COC[C@@H]1[C@H](O)c1ccc(NC(=O)COc2ccccc2)cc1` [CBK289685], for which the viability at 28.5 h, 10 µM came to 96.6%. For `CCN1C(=O)COC[C@@H]1[C@H](O)c1ccc(NC(=O)c2ccc(C#N)cc2)cc1` [CBK289689] the value was 91.6%; for `O=C(c1cccnc1)N1C[C@@H]2OCC(=O)N(Cc3ccc(F)cc3)[C@@H]2C1` [CBK289691], 96.1%; for `CC(C)CN1C(=O)COC[C@@H]1[C@H](O)c1ccc(NC(=O)c2cccnc2)cc1` [CBK289692], 105%. For `CCNC(=O)Nc1ccc([C@@H](O)[C@H]2COCC(=O)N2CC)cc1` [CBK289696], the viability at 28.5 h, 10 µM amounted to 93.5%. As for `O=C(Nc1ccc([C@@H](O)[C@H]2COCC(=O)N2Cc2ccccn2)cc1)c1cccs1` [CBK289700], the viability at 28.5 h, 10 µM was 109%.

Turning to `Cn1ccnc1CN1C(=O)CO[C@H]2CN(c3ncccn3)C[C@H]21` [CBK289704], the viability at 28.5 h, 10 µM came out at 98.3%. The same measure for `CCc1cn(CC(C(=O)OC)N(C)C)c(=O)[nH]c1=O` (centres unmarked) [CBK289706]: 107%.

On to `c1ccc2c(c1)CCN2c1ncnc2[nH]cnc12` [CBK291104], for which the viability at 28.5 h, 10 µM turned out to be 100%. The same measure for `O=C(Cc1c[nH]c(=O)[nH]c1=O)N1CCCCC1c1nc2cc(F)ccc2[nH]1` (centres unmarked) [CBK291108]: 104%; for `COc1ccc(-c2nc(-c3ccncc3)ncc2C(=O)NC2CCCCC2)cc1` [CBK291111]: 95.4%; for `COc1ccc(-c2nc(-c3ccncc3)ncc2C(=O)NCc2ccncc2)cc1` [CBK291112]: 96.4%. Consider `COc1ccc(Nc2ncc(C(=O)NCCCN3CCCC3)c3ccccc23)cc1` [CBK291114], for which the viability at 28.5 h, 10 µM came to 106%. The same measure for `Cc1ccc(NC(=O)Cn2c(=O)cc(O)c3ccccc32)cc1` [CBK291116]: 95.9%; for `c1ccc2c(c1)CCN2c1ncnc2c1nc1n2CCCCC1` [CBK291119]: 91.1%.

Consider `COc1ccc(C(=O)O)cc1N1C(=O)CC(c2c(C)nn(-c3ccccc3)c2N)C1=O` (centres unmarked) [CBK291120], for which the viability at 28.5 h, 10 µM turned out to be 112%. For the molecule `Cc1cc(NC(=O)CCC2CCCCC2)nc2c1c(=O)oc1ccccc12` [CBK291125], the viability at 28.5 h, 10 µM was 111%.

For `O=c1[nH]c(N2CCC3(CC2)OCCO3)nc2c(-c3ccccc3Cl)csc12` [CBK291128], the viability at 28.5 h, 10 µM came out at 114%. For `Cc1cc(Cn2nnc(-c3ccc(Br)cc3)n2)cc(C)c1O` [CBK291129] the value was 119%. On to `Cc1cc(Cn2nnc(-c3cccnc3)n2)cc(C)c1O` [CBK291130], for which the viability at 28.5 h, 10 µM is 113%. For `Cc1cc(NC(=O)c2ccc(S(=O)(=O)N3CCOCC3)cc2)nc2c1c(=O)oc1ccccc12` [CBK291134] the value was 106%.

`Cc1cc(NC(=O)c2ccc(S(=O)(=O)N(C)C)cc2)nc2c1c(=O)oc1ccccc12` [CBK291135]: the viability at 28.5 h, 10 µM came to 104%. Take `CC(c1ccncc1)N1Cc2cccc(C(=O)O)c2C1=O` (centres unmarked) [CBK291137]: the viability at 28.5 h, 10 µM is 97.4%. On to `COc1cc(Cn2c(-c3ccc(O)c(OC)c3)nc3ccccc32)ccc1O` [CBK291138], for which the viability at 28.5 h, 10 µM was determined as 100%.

For `Cc1ccc2sc(NC(=O)c3ccc(Cl)s3)nc2c1C` [CBK291144], the viability at 28.5 h, 10 µM turned out to be 103%. The same measure for `O=C(O)c1cccc2c1C(=O)N(Cc1ccncc1)C2` [CBK291146]: 80.6%. For `COc1ccc(CCC(=O)N2CCCCC2c2ncc(-c3cccc(F)c3)[nH]2)cc1OC` (centres unmarked) [CBK291148] the value was 90.3%; for `Cc1nn(C)c(C)c1CCC(=O)N1CCCCC1c1ncc(-c2cccc(F)c2)[nH]1` (centres unmarked) [CBK291150], 89.9%; for `Cc1cc(NC(=O)CC2CCCCC2)nc2c1c(=O)oc1ccccc12` [CBK291151], 90.6%. For the molecule `Cc1ccc(CC(=O)N2CCCCC2c2ncc(-c3cccc(F)c3)[nH]2)cn1` (centres unmarked) [CBK291152], the viability at 28.5 h, 10 µM amounted to 98%. As to `O=C1CC(c2ccccc2)CC(=O)N1c1nnn[nH]1` [CBK291154], the viability at 28.5 h, 10 µM was found to be 85.5%.

Regarding `O=C1CC(=O)N(Cc2ccc(F)cc2)C(=O)N1` [CBK291156], the viability at 28.5 h, 10 µM amounted to 95.2%. As for `Cc1cc(O)cc(=O)n1Cc1ccccn1` [CBK291159], the viability at 28.5 h, 10 µM stood at 91.8%. For `O=c1c(Cc2ccc(Cl)cc2)c(O)ccn1Cc1ccncc1` [CBK291161] the value was 98.7%; for `O=c1cc(O)c2ccccc2n1Cc1ccccc1F` [CBK291162], 86.3%; for `O=c1cc(O)c2cc([N+](=O)[O-])ccc2n1CCc1ccccc1` [CBK291165], 90.8%. On to `Cc1cc2ncc3c(n2n1)NC(c1ccc(Cl)cc1Cl)NC3=O` (centres unmarked) [CBK291167], for which the viability at 28.5 h, 10 µM worked out at 90.8%.

For `O=C(O)c1ccc(N2C(=O)CC(c3ccccc3)CC2=O)cc1` [CBK291169], the viability at 28.5 h, 10 µM turned out to be 87.3%. Turning to `CC(C)CSc1nc(O)cc(=O)n1Cc1ccccc1` [CBK291170], the viability at 28.5 h, 10 µM is 114%. The same measure for `COc1ccc(NC(=O)CSc2nc(C)c(Cc3ccc(O)cc3)[nH]2)cc1` [CBK291171]: 95.4%; for `O=C(NCc1ccccc1)c1c(O)c2ccccc2n(Cc2ccccc2)c1=O` [CBK291174]: 91.6%; for `CCCn1c(=O)c(Cc2ccccc2)c(O)c2ccccc21` [CBK291175]: 89.3%. For `COc1ccc(Cc2nc(-c3ccccc3)c3ccccc3n2)cc1F` [CBK291176] the value was 80.2%; for `COc1ccc(Oc2cc3n(c(=O)n2)CCc2cc(OC)c(OC)cc2-3)cc1` [CBK291177], 86.1%; for `CCc1c(C(=O)Nc2ccc3nc(C)cn3c2)cnc2cc(O)nn12` [CBK291178], 92.7%. On to `CC(C)Oc1ccc(C2CC(=O)N(c3cccc(C(=O)O)c3)C2=O)cc1` (centres unmarked) [CBK291181], for which the viability at 28.5 h, 10 µM amounted to 89.8%. For `CCOC(CCNC(=O)c1cnc(Nc2ccccc2OC)c2ccccc12)OCC` [CBK291184], the viability at 28.5 h, 10 µM worked out at 68.3%. On to `Oc1ccc(Cn2c(-c3ccc(O)cc3)nc3ccccc32)cc1` [CBK291187], for which the viability at 28.5 h, 10 µM was 90.3%.

On to `CCCCCn1c(=O)c(C(=O)Nc2cccc(O)c2)c(O)c2ccccc21` [CBK291189], for which the viability at 28.5 h, 10 µM came out at 111%. The same measure for `O=C1CC(c2ccccc2)CC(=O)N1c1ccc(N2CCOCC2)cc1` [CBK291191]: 108%. On to `NS(=O)(=O)c1ccc2nc(NC(=O)c3ccc(N4C(=O)CCC4=O)cc3)sc2c1` [CBK291192], for which the viability at 28.5 h, 10 µM turned out to be 117%.

Regarding `O=C(O)c1cccc2c1C(=O)N(Cc1cccnc1)C2` [CBK291193], the viability at 28.5 h, 10 µM amounted to 119%. Consider `Nc1nc(=O)c2cnc3ccc(F)cc3c2s1` [CBK291195], for which the viability at 28.5 h, 10 µM stood at 111%.

Take `CCCc1nc(SC)ncc1C(=O)Nc1nnc(SCC)s1` [CBK291198]: the viability at 28.5 h, 10 µM was 108%.

In the case of `Cc1cc(NC(=O)c2ccc(C(C)(C)C)cc2)nc2c1c(=O)oc1ccccc12` [CBK291200], the viability at 28.5 h, 10 µM amounted to 120%.

On to `Cc1cc(NC(=O)CCCc2ccccc2)nc2c1c(=O)oc1ccccc12` [CBK291204], for which the viability at 28.5 h, 10 µM stood at 109%. For `O=C(Nc1ccc(Br)cc1)c1c(O)n2c3c(cccc3c1=O)CCC2` [CBK291207] the value was 103%; for `Cn1c(=O)[nH]c(=O)c2cnc(-c3ccc(Cl)cc3)nc21` [CBK291208], 95.6%; for `CCOCCCNC(=O)c1ccc(-c2cc(Oc3ccc(OC)cc3)ncn2)cc1` [CBK291209], 100%.

Consider `COc1ccc(C(=O)Nc2nc3c(C)c(C)ccc3s2)cc1` [CBK291210], for which the viability at 28.5 h, 10 µM came out at 107%. For `COc1ccc(Sc2nc(SC)nc(-c3ccccc3)c2C#N)cc1` [CBK291212] the value was 94%. For `O=C(Nc1ccccn1)c1c(O)n(Cc2ccccc2)c2ccccc2c1=O` [CBK291213] the value was 90.3%; for `COC(=O)c1cccc2c1ncc1c(=O)nc(N)sc12` [CBK291214], 101%; for `O=C(c1cc(-c2ccccc2)n[nH]c1=O)N1CCc2ccccc2C1` [CBK291216], 91.2%. Consider `CCOC(=O)c1ccc2ncc3c(=O)nc(N)sc3c2c1` [CBK291218], for which the viability at 28.5 h, 10 µM stood at 83.7%.

For the molecule `Cn1c(=O)c2cnc(-c3ccccc3Cl)nc2n(C)c1=O` [CBK291219], the viability at 28.5 h, 10 µM was 85.7%. For `O=c1[nH]c(-c2cc(Cc3ccccc3Cl)ccc2O)nc2ccccc12` [CBK291220] the value was 98.3%; for `O=C(Nc1ccncc1)c1c(O)n(Cc2ccccc2)c2ccccc2c1=O` [CBK291222], 92%; for `CSc1ncc(C(=O)NC2CCCC2)c(NC2CCCC2)n1` [CBK291223], 91.3%.

On to `COc1ccc(Oc2ncnc3c2oc2ccccc23)cc1` [CBK291224], for which the viability at 28.5 h, 10 µM amounted to 86.4%. Consider `Cc1ccc2c(c1)nc(-c1ccc(O)cc1)n2Cc1ccc(O)cc1` [CBK291226], for which the viability at 28.5 h, 10 µM was determined as 77.4%. `Nc1nc(=O)c2cnc3c(Cl)cccc3c2s1` [CBK291229]: the viability at 28.5 h, 10 µM turned out to be 89.5%.

As to `Cc1cc(NC(=O)CN2CCN(c3ccc(F)cc3)CC2)nc2c1c(=O)oc1ccccc12` [CBK291232], the viability at 28.5 h, 10 µM worked out at 88.8%. On to `CCCCCn1c(=O)c(Cc2ccccc2)c(O)c2ccccc21` [CBK291233], for which the viability at 28.5 h, 10 µM amounted to 93.2%. For `COc1ccc(Nc2ncnc3c2oc2ccccc23)cc1` [CBK291236] the value was 86.5%; for `Nc1nc(=O)c2cnc3ccc(C(=O)O)cc3c2s1` [CBK291239], 96.7%.
